According to patent publication US9809853B2, “Calcium-activated chloride channel involved in human sweat formation” (BRAIN Biotechnology Research and Information Network AG, priority 2012, dated 2017):

Tests used:
[1] = target: T1, CaCC (Ca^2+-activated chloride channels) in NCL-SG3-hsYFP cells (Homo sapiens, UniProt Q5XXA6); assay: hsYFP fluorescence quenching (Cl^− efflux/I^− influx) assay in NCL-SG3-hsYFP CaCC activity sensor cells; type: cell-based; conditions: for Effect on hsYFP quenching by Cl^− efflux/I^− influx mediated by ATP: 25 μM; for Dose dependence of inhibition of CaCC-mediated Cl^− efflux: increasing inhibitor concentrations, stimulation with 330 μM ATP
T1 sequence (Q5XXA6 1-986): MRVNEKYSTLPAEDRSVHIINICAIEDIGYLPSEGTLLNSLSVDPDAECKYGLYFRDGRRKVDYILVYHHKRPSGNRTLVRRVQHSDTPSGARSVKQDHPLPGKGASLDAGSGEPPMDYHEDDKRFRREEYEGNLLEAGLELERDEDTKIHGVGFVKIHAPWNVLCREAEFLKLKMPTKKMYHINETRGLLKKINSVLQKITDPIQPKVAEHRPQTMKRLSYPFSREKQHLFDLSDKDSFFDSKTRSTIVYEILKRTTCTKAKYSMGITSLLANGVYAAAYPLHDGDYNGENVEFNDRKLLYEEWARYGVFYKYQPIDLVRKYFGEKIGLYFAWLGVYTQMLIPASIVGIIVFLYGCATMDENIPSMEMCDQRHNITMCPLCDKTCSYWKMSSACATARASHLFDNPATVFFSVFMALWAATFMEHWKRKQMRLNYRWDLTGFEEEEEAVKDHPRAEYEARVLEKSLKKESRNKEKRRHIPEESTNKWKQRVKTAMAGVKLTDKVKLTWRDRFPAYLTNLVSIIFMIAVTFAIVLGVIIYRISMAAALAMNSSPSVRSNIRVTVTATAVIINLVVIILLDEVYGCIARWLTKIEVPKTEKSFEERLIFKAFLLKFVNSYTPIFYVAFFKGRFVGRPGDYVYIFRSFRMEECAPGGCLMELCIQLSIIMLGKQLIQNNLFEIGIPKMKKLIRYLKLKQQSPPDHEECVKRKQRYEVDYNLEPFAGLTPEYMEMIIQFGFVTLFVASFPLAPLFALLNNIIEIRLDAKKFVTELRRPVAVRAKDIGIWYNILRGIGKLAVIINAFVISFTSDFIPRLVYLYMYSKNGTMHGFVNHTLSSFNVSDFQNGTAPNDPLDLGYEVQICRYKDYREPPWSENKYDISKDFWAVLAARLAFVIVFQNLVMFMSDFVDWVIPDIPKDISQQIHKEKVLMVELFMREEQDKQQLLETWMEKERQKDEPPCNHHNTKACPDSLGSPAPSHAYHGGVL
Method: The halide inside the cell functionally interacts with the halide-sensitive cytoplasmic indicator protein, which leads to a quenching of the signal provided by the halide-sensitive cytoplasmic indicator protein. The more halide (such as e.g. iodide) flows into the cell, the weaker the signal emitted by the halide-sensitive cytoplasmic indicator protein becomes. This alteration of the signal emitted by the halide-sensitive cytoplasmic indicator protein is determined in a third step of the method of the invention. Due to the fact that the influx of halide into the cell is proportional to the efflux of chloride ions, the halide influx is used as a direct measure for chloride secretion. To determine the amount of chloride secretion, the fluorescence decrease is plotted against time (Δfluorescence/Δtime) and the initial slope of the resulting graph represents the iodide influx rate (sec^−1), which in turn is directly proportional to the chloride efflux rate, representing the amount of chloride secretion per time. In a fourth step, this amount of chloride secretion determined in the presence of a test compound is compared to the amount of chloride secretion determined in the absence of a said compound.
Effect of CaCC inhibitors on sweat gland-specific Ca^2+-dependent […] and proportional I^− influx was determined using NCL-SG3-hsYFP cells. Quenching of intracellular hsYFP fluorescence was measured and plotted over time. Exemplary raw data (B) and fitted curves are shown (A). NCL-SG3-hsYFP cells were incubated with 50 μM tannic acid (TA), 25 μM niflumic acid (NFA), 25 μM 5-nitro-2-(3-phenylpropyl-amino) benzoic acid (NPPB), 100 μM epigallocatechin-3-gallate (EGCG) for 15 min and then stimulated with 330 μM ATP.
Sweat gland-specific Ca^2+-dependent Cl^− efflux and a proportional I^− influx was determined using NCL-SG3-hsYFP cells. Quenching of intracellular hsYFP fluorescence was measured and plotted over time. Exemplary fitted curves are shown. NCL-SG3-hsYFP cells were incubated with increasing concentrations of tannic acid (TA) and then stimulated with 330 μM ATP. […] NCL-SG3-hsYFP cells were incubated with increasing concentrations of CaCC inhibitors and quenching of intracellular hsYFP fluorescence was measured after stimulation with ATP. The rate of […] (sec^−1), which is proportional to Ca^2+-dependent […] was calculated from the initial slope of the measured hsYFP fluorescence (ΔYFP fluorescence/Δtime) and is a direct measure of CaCC activity. IC50 values were determined by plotting the percentage of residual CaCC activity against the individual inhibitor concentration.
NCL-SG3-hsYFP cells were routinely cultivated in Williams' Medium E supplemented with 9% Fetal Calf Serum, 3.5 mM Glutamine, 9 ng/μl Hydrocortisone, Insulin-Transferrin-Selenium-Supplement (PAA Laboratories) at 37° C. and 5% CO2. For microplate assays, 20,000 cells were seeded in 96-well black-walled, clear bottom microplates (Costar) and cultivated for 2 days until cells reached confluency. Cells were washed three times with 100 μl modified Krebs-Henseleit (KH) buffer (137 mM NaCl, 2.7 mM KCl, 1.2 mM MgSO4, 1.2 mM KH2PO4, 4.2 mM NaHCO3, 1.3 mM CaCl2, 10 mM HEPES, pH 7.4) and incubated with the test compound in 50 μl KH-buffer for 15 min at 37° C. and 5% CO2. Microplates were transferred into an automated fluorescence plate reader (FlexStation®, Molecular Devices) and cellular hsYFP fluorescence was continuously recorded every 3.5 sec until end of the experiment (excitation at 485 nm, emission at 535 nm, cutoff 515 nm).

[2] = test system: CaCCs in human colonic epithelial cells; conditions: reference (44); cited from earlier work

Molecule | Effect on hsYFP quenching by Cl^− efflux/I^− influx mediated by ATP ([1]; 15 min, then 330 μM ATP) | Dose dependence of inhibition of CaCC-mediated Cl^− efflux [1] | Quenching of hsYFP fluorescence after addition of Ca^2+-elevating agent ([1]; 1 μM) | Effect on CaCC-mediated Cl^− efflux (hsYFP quenching) mediated by ATP ([1]; 100 μM, 15 min, then 330 μM ATP) | Inhibition of CaCCs / Cl^− currents [2]
O=C(O)c1cccnc1Nc1cccc(C(F)(F)F)c1 [NFA, niflumic acid] | significant reduction of hsYFP quenching | antagonized CaCC-mediated Cl^− efflux in a dose-dependent manner |  |  | 
O=C(O)c1cc([N+](=O)[O-])ccc1NCCCc1ccccc1 [NPPB, 5-nitro-2-(3-phenylpropyl-amino) benzoic acid] | significant reduction of hsYFP quenching | antagonized CaCC-mediated Cl^− efflux in a dose-dependent manner |  |  | 
C[C@H](CCC(=O)O)C[C@H](C)C[C@H](C)C(=O)/C=C(\O)[C@H](C)C[C@H](C)C/C=C/[C@@H](C)[C@@H](O)[C@@H](C)[C@@H](O)C[C@@H]1CC[C@@](C)([C@H]2CC[C@@](C)([C@@H](C)O)O2)O1 [ionomycin] |  |  | quick quenching of the hsYFP fluorescence followed by a slow recovery |  | 
epigallocatechin-3-gallate [EGCG] |  |  |  | no effect | effectively inhibits
